Test results published in article PMC5840523, “Assessment of a pretomanid analogue library for African trypanosomiasis: Hit-to-lead studies on 6-substituted 2-nitro-6,7-dihydro-5H-imidazo[2,1-b][1,3]thiazine 8-oxides” (Bioorganic & Medicinal Chemistry Letters, 2018).
In brackets after ≈: the same amount, converted by molar mass. Like-named read-outs stand apart in the source and are kept apart here. Blank lines part the entries; values can stand above or below the compound they belong to.

Legend:
[1] = test system: T. b. brucei 427; test: T. b. brucei 427 growth inhibition (Scynexis); assay type: cell-based, Trypanosoma brucei brucei; conditions: for IC50: Trypanosoma brucei, growth inhibition of T. b. brucei 427, mean ± SD; for Selectivity Index: L929 vs T. b. brucei
[2] = test system: L929 mouse fibroblasts; test: Cytotoxicity toward L929 mouse fibroblasts (Scynexis); assay type: cell-based
[3] = Human liver microsomal stability; assay type: in vitro ADME; conditions: pooled human liver microsomes
[4] = Mouse liver microsomal stability; assay type: in vitro ADME; conditions: CD-1 mouse liver microsomes
[5] = test system: T. b. brucei 427; test: T. b. brucei growth inhibition (University of Antwerp); assay type: cell-based, Trypanosoma brucei brucei; conditions: T. b. brucei 427, mean of 2 to 5 determinations, read-out: IC50 T. b. bruc
[6] = test system: T. b. rhodesiense; test: T. b. rhodesiense growth inhibition (University of Antwerp); assay type: cell-based, Trypanosoma brucei rhodesiense; conditions: mean of 2 to 5 determinations, read-out: IC50 T. b. rhod
[7] = test system: Trypanosoma cruzi; test: T. cruzi growth inhibition (University of Antwerp); assay type: cell-based; conditions: mean of 2 to 5 determinations
[8] = test system: Leishmania infantum; test: L. infantum growth inhibition (University of Antwerp); assay type: cell-based; conditions: mean of 2 to 5 determinations
[9] = test system: human lung fibroblasts (MRC-5 cells); test: Cytotoxicity toward MRC-5 cells (University of Antwerp); assay type: cell-based; conditions: Homo sapiens, MRC5, cytotoxicity toward human lung fibroblasts
[10] = Mouse liver S9 stability; assay type: in vitro ADME; conditions: CD-1, mouse, mouse liver S9 subcellular fraction, half-life in mouse liver S9 fraction; read-out: Mouse S9 t1/2
[11] = Kinetic aqueous solubility in pH 7.4 PBS; assay type: physicochemical
Excerpt: Table 1 Inhibitory potency, metabolic stability, aqueous solubility, and MDCK-MDR1 cell permeability for 15 screening hits against T. b. brucei. | column: Solubility ^c / (µg/mL)

[12] = Mouse pharmacokinetics (plasma, whole blood, brain); assay type: in vivo, male CD-1 mice; conditions: male, CD-1, mouse; for bioavailability: po; for Vd: read-out: Vdss; for half-life: read-out: t1/2 (converted)
Description: In order to determine the suitability of the more permeable hits for in vivo efficacy studies, we first measured their aqueous solubilities, and their tendencies to metabolise, following a 1 h incubation with CD-1 mouse liver S9 subcellular fractions.[14] […] This led us to probe their in vivo pharmacokinetic (PK) profiles in mice, examining concentration levels in plasma, whole blood and brain tissue following both intravenous and oral administration (Table 2; for further experimental details, see the Supporting Information). […]
Mouse Pharmacokinetics. The in-life portion of PK testing was carried out by ViviSource Laboratories, Inc., Mass achusetts, USA, and PK samples were anal ysed by Sc ynexis, Inc.
Test compounds (9, 12, 17, and 19) w er e each administered as single doses to groups of 10 male CD-1 mice by bolus intravenous injection or oral gavage. Intravenous dosing (at a nominal dose of 2 mg/kg) emplo yed a solution vehicle comprising either 20% EtOH, 20% propylene gl ycol, and 30% PEG -400 in normal saline (for powders 9, 17, and 19) or 0.5% (hydrox yprop yl)meth ylcellulose, 0.4% Tween 80, 0.5% benz yl alcohol, and 20% DMSO i n deionised water (for oil 12). […]
in 0.5% methylcellulose, 0.08% Tween 80 in water ( ex cept fo r oil 12, where the formulation additionally contained 20% DMSO). […]

[13] = in vitro; conditions: dog, MDCK-MDR1, Permeability Papp
[14] = test system: MDCK-MDR1 cell monolayer; conditions: dog, MDCK-MDR1, 1 h, 3 µM
[15] = Trypanosoma brucei, RHODESIENSE
[16] = brain, from dose normalised AUClast values, read-out: F (oral bioavailability)
[17] = over the three sampling sites (plasma, whole blood, brain), read-out: oral bioavailability
[18] = whole blood, from dose normalised AUClast values, read-out: F (oral bioavailability)
[19] = brain, intravenous, corrected doses 0.5, 1.1, 2.9, 2.0 mg/kg for 9, 12, 17, 19
[20] = brain, oral, corrected doses 62, 50, 78, 49 mg/kg for 9, 12, 17, 19
[21] = plasma, intravenous, corrected doses 0.5, 1.1, 2.9, 2.0 mg/kg for 9, 12, 17, 19
[22] = plasma, oral, corrected doses 62, 50, 78, 49 mg/kg for 9, 12, 17, 19
[23] = whole blood, intravenous, corrected doses 0.5, 1.1, 2.9, 2.0 mg/kg for 9, 12, 17, 19
[24] = whole blood, oral, corrected doses 62, 50, 78, 49 mg/kg for 9, 12, 17, 19

remaining at 1 h [3]: 88%
remaining at 1 h [4]: 89%
IC50 ([7]; Trypanosoma cruzi): 13 µM
Structure (SMILES): O=[N+]([O-])c1cn2c(n1)[S@+]([O-])C[C@H](OCc1ccc(OC(F)(F)F)cc1)C2 [Compound 27]
IC50 [1]: > 5 µg/mL
IC50 [2]: > 10 µg/mL
IC50 ([5]; Trypanosoma brucei): 16 µM
IC50 [6, 15]: 4.3 µM
IC50 ([8]; Leishmania infantum): 48 µM
IC50 [9]: > 64 µM

half-life [10]: > 5.83 h
solubility [11]: 39 µg/mL (≈ 99.7 µM)
bioavailability [12, 16]: 55%
bioavailability [12, 17]: 52 to 55%
bioavailability ([12]; plasma, from dose normalised AUClast values, read-out: F (oral bioavailability)): 55%
bioavailability [12, 18]: 52%
AUC(0-t) [12, 19]: 2850 ng·h/mL
clearance [12, 19]: 6.67 mL/min/kg
Vd [12, 19]: 1.3 L/kg
half-life [12, 19]: 2.3 h
AUC(0-t) [12, 20]: 71200 ng·h/mL
Cmax [12, 20]: 14000 ng/mL
Tmax [12, 20]: 4 h
half-life [12, 20]: 6.9 h
AUC(0-t) [12, 21]: 2090 ng·h/mL
clearance [12, 21]: 8.67 mL/min/kg
Vd [12, 21]: 1.6 L/kg
half-life [12, 21]: 2.5 h
AUC(0-t) [12, 22]: 51900 ng·h/mL
Cmax [12, 22]: 9300 ng/mL
Tmax [12, 22]: 4 h
half-life [12, 22]: 6.9 h
AUC(0-t) [12, 23]: 2700 ng·h/mL
clearance [12, 23]: 6.5 mL/min/kg
Vd [12, 23]: 1.7 L/kg
half-life [12, 23]: 9.3 h
AUC(0-t) [12, 24]: 63500 ng·h/mL
Cmax [12, 24]: 8600 ng/mL
Tmax [12, 24]: 4 h
half-life [12, 24]: 5.8 h
IC50 [7]: 1.5 µM
Papp at 1 h, 3 µM [13]: 79.8 ×10⁻⁶ cm/s
Structure (SMILES): O=[N+]([O-])c1cn2c(n1)[S+]([O-])CC(OCc1ccc(OC(F)(F)F)cc1)C2 (centres unmarked) [Compound 12]
Selectivity Index [1]: >63
IC50 [1]: 0.16 ± 0.07 µg/mL (≈ 0.409 µM)
IC50 [2]: > 10 µg/mL
IC50 [5]: 0.27 µM
IC50 [6]: 0.25 µM
IC50 [8]: 16 µM
IC50 [9]: 60 µM

remaining at 1 h [3]: 91%
remaining at 1 h [4]: 26%
IC50 ([7]; Trypanosoma cruzi): 6.5 µM
Structure (SMILES): O=[N+]([O-])c1cn2c(n1)[S@@+]([O-])C[C@H](OCc1ccc(OC(F)(F)F)cc1)C2 [Compound 26]
IC50 [1]: > 5 µg/mL
IC50 [2]: > 10 µg/mL
IC50 ([5]; Trypanosoma brucei): 34 µM
IC50 [6, 15]: 7.3 µM
IC50 ([8]; Leishmania infantum): 41 µM
IC50 [9]: > 64 µM

Permeability Papp [14]: <0.08 ×10⁻⁶ cm/s
Papp at 1 h, 3 µM [13]: < 0.08 ×10⁻⁶ cm/s
Structure (SMILES): O=[N+]([O-])c1cn2c(n1)OC[C@@H](OCCCc1ccc(-c3ccc(Oc4ccc(C(F)(F)F)cc4)cc3)cc1)C2 [Compound 13]
Selectivity Index [1]: >43
IC50 [1]: 0.23 ± 0.04 µg/mL (≈ 0.426 µM)
IC50 [2]: > 10 µg/mL

half-life [10]: 2.88 h
solubility [11]: 5.4 µg/mL (≈ 13.1 µM)
bioavailability ([12]; 0.5 mg/kg, plasma, from dose normalised AUClast values, read-out: F (oral bioavailability)): 1.4%
bioavailability [12, 16]: 0.8%
bioavailability [12, 17]: < 1.5%
bioavailability [12, 18]: 0.8%
AUC(0-t) [12, 19]: 304 ng·h/mL
clearance [12, 19]: 25 mL/min/kg
Vd [12, 19]: 1.2 L/kg
half-life [12, 19]: 1.6 h
AUC(0-t) [12, 20]: 290 ng·h/mL
Cmax [12, 20]: 60 ng/mL
Tmax [12, 20]: 2 h
half-life [12, 20]: 3.2 h
AUC(0-t) [12, 21]: 505 ng·h/mL
clearance [12, 21]: 16.2 mL/min/kg
Vd [12, 21]: 0.59 L/kg
half-life [12, 21]: 0.43 h
AUC(0-t) [12, 22]: 869 ng·h/mL
Cmax [12, 22]: 200 ng/mL
Tmax [12, 22]: 2 h
half-life [12, 22]: 3.7 h
AUC(0-t) [12, 23]: 489 ng·h/mL
clearance [12, 23]: 14.5 mL/min/kg
Vd [12, 23]: 0.33 L/kg
half-life [12, 23]: 0.42 h
AUC(0-t) [12, 24]: 494 ng·h/mL
Cmax [12, 24]: 110 ng/mL
Tmax [12, 24]: 2 h
half-life [12, 24]: 5.3 h
IC50 ([7]; Trypanosoma cruzi): 0.12 µM
Papp at 1 h, 3 µM [13]: 77.1 ×10⁻⁶ cm/s
Structure (SMILES): O=[N+]([O-])c1cn2c(n1)[S+]([O-])CC(OCc1ccc(OCc3ccccc3)cc1)C2 (centres unmarked) [Compound 9]
Selectivity Index [1]: >667
IC50 [1]: 0.015 ± 0.005 µg/mL (≈ 0.0363 µM)
IC50 [2]: > 10 µg/mL
IC50 ([5]; Trypanosoma brucei): 0.03 µM
IC50 [6, 15]: 0.027 µM
IC50 ([8]; Leishmania infantum): 3.4 µM
IC50 [9]: 64 µM
